Laboratory results as given in patent US11401254B2, “Substituted thiophenecarboxamides and analogues as antibacterials agents” (Bayer Aktiengesellschaft, priority 2018, dated 2022).

How the values were obtained:
[1] = tested on: Xanthomonas campestris pv. campestris; experiment: Xanthomonas campestris pv. campestris in vitro cell test (bacteria growth in liquid culture); type: cell-based; settings: 20 ppm of tested compound; 24 h of incubation
Protocol: Example A: Xanthomonas Campestris pv. Campestris In Vitro Cell Test
Culture medium: LB broth medium (Luria Broth Miller) Sigma
Inoculum: bacteria suspension
Compounds to be tested were solubilized in DMSO and the solution used to prepare the required range of concentrations. The final concentration of DMSO used in the assay was ≤1%.
Inoculum was prepared from a pre-culture of bacteria grown in liquid medium and diluted to the desired optical density (OD).
Compounds were evaluated for their ability to inhibit bacteria growth in liquid culture assay. The compounds were added in the desired concentrations to culture medium containing the bacteria suspension. After 24 h of incubation, the efficacy of compounds was determined by spectrometric measurement of bacteria growth. Inhibition was determined by comparing the absorbance values in wells containing the compounds with the absorbance in control wells without compounds.

[2] = Log P by HPLC on reversed phase columns (EEC directive 79/831 Annex V.A8); type: physicochemical; settings: for chromatographic logP: reversed phase HPLC columns
Protocol: In the above tables, measurement of Log P values was performed according to EEC directive 79/831 Annex V.A8 by HPLC (High Performance Liquid Chromatography) on reversed phase columns with the following methods: • ^[a]
If more than one Log P value is available within the same method, all the values are given and separated by “+”.
Calibration was done with straight-chain alkan2-ones (with 3 to 16 carbon atoms) with known Log P values (measurement of Log P values using retention times with linear interpolation between successive alkanones). Lambda-max-values were determined using UV-spectra from 200 nm to 400 nm and the peak values of the chromatographic signals.

[3] = tested on: Xanthomonas campestris pv. campestris; experiment: In vivo preventive test on Xanthomonas campestris pv. campestris (black rot on cabbage); settings: Example C comparative table; same conditions as described in Example B; concentration not given
Protocol: Example B: In Vivo Preventive Test on Xanthomonas campestris pv. Campestris (Black Rot on Cabbage)
The tested compounds were prepared by homogenization in a mixture of acetone/Dimethyl sulfoxide/Tween®, and then diluted with water to obtain the desired concentration.
The young plants of cabbage were treated by spraying the compound prepared as described above. Control plants were treated only with an aqueous solution of acetone/Dimethyl sulfoxide/Tween®.
After 72 hours, the plants were contaminated by spraying the leaves with an aqueous bacteria suspension of Xanthomonas campestris pv. campestris. The contaminated cabbage plants were incubated for 8 or 10 days at 27° C. at 95% relative humidity.
The test was evaluated 8 or 10 days after the inoculation. 0% means an efficacy which corresponds to that of the control plants while an efficacy of 100% means that no disease was observed.
Compounds CMP3, CMP4, CMP5 and CMP6 were tested in an in vivo preventive test on Xanthomonas campestris pv. campestris (black rot on cabbage) in the same conditions as described in Example B.

[4] = method [a]: LC-UV, acidic range, 0.1% formic acid in water and acetonitrile as eluent

Compound	direct activity (inhibition of bacteria growth) [1]	chromatographic logP [2, 4]	chromatographic logP ([2]; value given in preparation example, method variant not stated)	Efficacy (%) [3] [%]	LogP [2, 4]
CCOC(=O)[C@@H](NC(=O)c1sc(Br)c(Br)c1C)C(C)C (racemic) [I.04, ethyl N-[(4,5-dibromo-3-methyl-2-thienyl)carbonyl]-valinate]	no direct activity	4.32	4.32	>90	
CCOC(=O)C(NC(=O)c1sc(Br)c(Br)c1Br)C(C)C (stereo not shown) [CMP3, reference compound]				33	
CCOC(=O)CNC(=O)c1sc(Br)c(Br)c1Br [CMP4, reference compound]				0	
CC(C)CC(NC(=O)c1cc(Br)c(Br)s1)C(=O)O (stereo not shown) [CMP6, reference compound]				15	
CCOC(=O)CNC(=O)c1sc(Br)c(Br)c1C [I.02]	no direct activity			>80	3.02^[a]
Cc1c(C(=O)NCC(=O)OCc2ccccc2)sc(Cl)c1Cl [I.34]	no direct activity				3.76^[a]
COC(=O)C(CCSC)NC(=O)c1sc(Cl)c(Cl)c1C (stereo not shown) [I.35]	no direct activity				3.55^[a]
COC(=O)[C@@H](CCSC)NC(=O)c1sc(Cl)c(Cl)c1C [I.36]	no direct activity				3.55^[a]
CCOC(=O)C(CC(C)C)NC(=O)c1sc(Cl)c(Cl)c1C (stereo not shown) [I.37]	no direct activity				4.51^[a]
CCOC(=O)C(Cc1ccccc1)NC(=O)c1sc(Cl)c(Cl)c1C (stereo not shown) [I.38]	no direct activity				4.46^[a]
CCOC(=O)C(Cc1ccc(O)cc1)NC(=O)c1sc(Cl)c(Cl)c1C (stereo not shown) [I.39]	no direct activity				3.29^[a]
Cc1c(C(=O)NCC(=O)OC(C)C)sc(Cl)c1Cl [I.41]	no direct activity				3.29^[a]
CCOC(=O)[C@@H](C)NC(=O)c1sc(Cl)c(Cl)c1C [I.42]	no direct activity				3.31^[a]
CCOC(=O)C1(NC(=O)c2sc(Cl)c(Cl)c2C)CC1 [I.43]	no direct activity				3.08^[a]
CCOC(=O)[C@@H](Cc1ccccc1)NC(=O)c1sc(Cl)c(Cl)c1C [I.45]	no direct activity				4.46^[a]
COC(=O)C(NC(=O)c1sc(Cl)c(Cl)c1C)C(C)C (stereo not shown) [I.46]	no direct activity				3.79^[a]

Compound	direct activity (inhibition of bacteria growth) [1]	chromatographic logP [2, 4]	chromatographic logP ([2]; value given in preparation example, method variant not stated)	Efficacy (%) [3] [%]	LogP [2, 4]
CCOC(=O)C(CCSC)NC(=O)c1sc(Cl)c(Cl)c1C (stereo not shown) [I.47]	no direct activity				3.94^[a]
CCCOC(=O)CNC(=O)c1sc(Cl)c(Cl)c1C [I.48]	no direct activity				3.35^[a]
Cc1c(C(=O)NC(C(=O)OC(C)C)C(C)C)sc(Br)c1Br (stereo not shown) [I.49]	no direct activity				4.77^[a]
Cc1c(C(=O)NC2(C(=O)O)CC2)sc(Cl)c1Cl [I.51]	no direct activity				2.26^[a]
Cc1c(C(=O)NC(C(=O)OC2CCC2)C(C)C)sc(Br)c1Br (stereo not shown) [I.53]	no direct activity				4.98^[a]
CCCOC(=O)C(NC(=O)c1sc(Br)c(Br)c1C)C(C)C (stereo not shown) [I.54]	no direct activity				4.77^[a]
CCCCOC(=O)C(NC(=O)c1sc(Br)c(Br)c1C)C(C)C (stereo not shown) [I.55]	no direct activity				5.25^[a]
Cc1c(C(=O)NC(C(=O)OC2CC2)C(C)C)sc(Br)c1Br (stereo not shown) [I.56]	no direct activity				4.37^[a]
Cc1c(C(=O)NC(C(=O)OCc2ccccc2)C(C)C)sc(Br)c1Br (stereo not shown) [I.57]	no direct activity				5.03^[a]
C=CCOC(=O)C(NC(=O)c1sc(Br)c(Br)c1C)C(C)C (stereo not shown) [I.58]	no direct activity				4.46^[a]
Cc1c(C(=O)NC(C(=O)OCC(F)(F)F)C(C)C)sc(Br)c1Br (stereo not shown) [I.59]	no direct activity				4.51^[a]
Cc1c(C(=O)NC(C(=O)Oc2ccccc2)C(C)C)sc(Br)c1Br (stereo not shown) [I.60]	no direct activity				4.85^[a]
Cc1c(C(=O)NC(C(=O)OC(C)(C)C)C(C)C)sc(Br)c1Br (stereo not shown) [I.61]	no direct activity				5.25^[a]
Cc1c(C(=O)NC(C)C(=O)O)sc(Br)c1Br (stereo not shown) [I.79]				>70	2.39^[a]
Cc1c(C(=O)NC(CC(C)C)C(=O)O)sc(Br)c1Br (stereo not shown) [I.90]				>70	
